Reference: PubChem BioAssay (NCI)
Values joined by “and” are separate entries in the source; they are usually repeats but may differ in a detail not shown here. Equal entries are not always repeated.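 Following 48 hours of exposure in 96-well plates, responses at five concentrations were used to interpolate endpoints linearly. GI50 is the concentration that inhibits growth by half. TGI: total growth inhibition.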

How the values were obtained:
Experiment in all cases: NCI tumour cell line growth inhibition, 48 h
NCI-H460 lung = tested on: NCI-H460 lung
HCC-2998 colon = tested on: HCC-2998 colon
M14 melanoma = tested on: M14 melanoma
MOLT-4 leukemia = tested on: MOLT-4 leukemia
RXF 393 renal = tested on: RXF 393 renal
LOX IMVI melanoma = tested on: LOX IMVI melanoma
HOP-92 NSCLC = tested on: HOP-92 NSCLC
COLO 205 colon = tested on: COLO 205 colon
OVCAR-3 ovarian = tested on: OVCAR-3 ovarian
MCF7 breast = tested on: MCF7 breast

SMILES	TGI (NCI-H460 lung)	TGI (HCC-2998 colon)	TGI (M14 melanoma)	TGI (MOLT-4 leukemia)	TGI (RXF 393 renal)	TGI (LOX IMVI melanoma)	TGI (HOP-92 NSCLC)	TGI (COLO 205 colon)	TGI (OVCAR-3 ovarian)	GI50 (NCI-H460 lung)	GI50 (COLO 205 colon)	GI50 (HCC-2998 colon)	GI50 (MCF7 breast)	TGI (MCF7 breast)	GI50 (M14 melanoma)	GI50 (RXF 393 renal)	GI50 (OVCAR-3 ovarian)	GI50 (LOX IMVI melanoma)	GI50 (MOLT-4 leukemia)	GI50 (HOP-92 NSCLC)
CCCCCCCCCCNC(=S)OC	> 100 µM	> 100 µM	> 100 µM	30.8 µM	> 100 µM	39.6 µM	65.9 µM													
C=C1C2CC(OC(C)=O)C3(C)C(c4ccoc4)OC(=O)[C@@H](O)[C@]13OC1C[C@H](OC(C)=O)C(C)(C)[C@H](C(O)C(=O)OC)[C@]12C (stereo partly drawn)	> 100 µM	> 100 µM	> 100 µM	> 100 µM		> 100 µM	57.6 µM	> 100 µM	> 100 µM											
O=CC1=CCCN(CCc2c[nH]c3ccccc23)C1	105 µM	128 µM		> 393 µM	85.8 µM	12.2 µM	121 µM	149 µM	95.9 µM											
O=[N+]([O-])c1cc(I)cc(/C=N/NS(=O)(=O)c2ccc(F)cc2)c1O	44 µM	> 100 µM	82.3 µM	57.7 µM	49.9 µM	57.4 µM	36.3 µM	32.4 µM	38.6 µM											
O=C(O)C(Cc1ccccc1)N=Cc1nc(-c2ccccc2)oc1O (stereo not drawn)	> 100 µM	> 100 µM	> 100 µM	> 100 µM	> 100 µM	> 100 µM		> 100 µM	> 100 µM											
CC(=O)OC1CC2C(C)(C)C(=O)C=C[C@]2(C)C2CCC3(C)C(c4ccoc4)C(=O)C4OC43[C@]12C (stereo partly drawn)	33.3 µM	30.7 µM	39.5 µM	50.8 µM		25.9 µM	38.1 µM	34.2 µM	34.4 µM											
OCC1CC2C=CCC(C2)C1 (stereo not drawn)	> 100 µM		> 100 µM	> 100 µM	> 100 µM	> 100 µM	> 100 µM	> 100 µM	> 100 µM											
CO[C@H]1/C=C/O[C@@]2(C)Oc3c(C)c(O)c4c(O)c(c(/C=N/N5C(C)CN(Cc6ccc(C#N)cc6)CC5C)c(O)c4c3C2=O)NC(=O)/C(C)=C\C=C\[C@H](C)[C@H](O)[C@@H](C)[C@@H](O)[C@@H](C)[C@H](OC(C)=O)[C@@H]1C (stereo partly drawn)	14.1 µM	17.6 µM	16.2 µM		19.4 µM	13.4 µM		16.4 µM	13.5 µM	5.76 µM	6.82 µM	7.87 µM	6.37 µM	24.3 µM	7.6 µM	8.88 µM	6.99 µM	6.84 µM		
CC(C)(C)OC(=O)NC(Cc1ccccc1)C(=S)N1CCCC1 (stereo not drawn)	> 100 µM	> 100 µM	> 100 µM	> 100 µM	> 100 µM	> 100 µM	> 100 µM	> 100 µM	> 100 µM											
O=C(NC1CCCCC1)NC12CC3CC(CC(F)(C3)C1)C2	> 100 µM	> 100 µM	> 100 µM	> 100 µM	> 100 µM	> 100 µM	> 100 µM	> 100 µM	> 100 µM											
OCC#Cc1ccccc1C#Cc1ccc(C#Cc2ccccc2C#CCO)cc1	> 100 µM			39.6 µM		> 100 µM		> 100 µM	56.6 µM	28.3 µM	> 100 µM		26.3 µM	> 100 µM			20 µM	48.1 µM	15.9 µM	
Cc1ccc([N+](=O)[O-])cc1NC(=O)C(=O)Cc1nc2ccc(C(=O)c3ccccc3)cc2[nH]c1=O	> 100 µM	> 100 µM	> 100 µM	> 100 µM	> 100 µM	> 100 µM	> 100 µM	> 100 µM	> 100 µM											
O=C(N/C(=C\c1cccc([N+](=O)[O-])c1)c1nc2c3c(ccc2[nH]1)C(=O)c1ccccc1C3=O)c1ccccc1	> 100 µM		> 100 µM				> 100 µM		> 100 µM											
Cc1ccc(NC(=O)C(=O)C2C(=O)NC(=O)NC2=O)c(C)c1	> 100 µM	> 100 µM	> 100 µM	> 100 µM	> 100 µM	> 100 µM	> 100 µM	26.8 µM	> 100 µM											
Cn1c(=O)nc2n(-c3ccc(F)c(F)c3)c3ccccc3nc-2c1=O	35.5 µM	23.7 µM	45 µM		72.5 µM			15.7 µM	10.3 µM											
CCCCCCCCCCCCCCCCCC1=NC(C)(C)CN1C(C)(C)CO	2.8 µM	2.5 µM	2.88 µM	4.05 µM	2.36 µM		3.37 µM	1.38 µM	2.96 µM	1.31 µM	0.407 µM	1.2 µM			1.46 µM	1.11 µM	1.5 µM		1.45 µM	0.85 µM
CC1=NC(C)=C(/C(C)=N/NC(=O)c2ccccc2O)C(C)/C1=C(/C)NNC(=O)c1ccccc1O (stereo not drawn)	66.6 µM		> 100 µM	23.8 µM	26.2 µM	51.7 µM	85.9 µM		66.7 µM											
CCOC(=O)NC(=O)c1cn(C2CCCCC2)c(=O)n(C)c1=O	> 100 µM	> 100 µM	> 100 µM	> 100 µM	> 100 µM	> 100 µM	> 100 µM	> 100 µM	> 100 µM											
C=CCC1(CN(C)C)CC/C(=C\c2cc(OC)c(OC)c(OC)c2)C1=O (stereo not drawn)	36.9 µM	35.5 µM	38.4 µM	78.8 µM	37.3 µM	43 µM	> 100 µM	31.3 µM	69.2 µM											
COC(=O)[C@@H](C)C[C@H](Cc1ccccc1)NC(=O)c1csc([C@@H](C[C@H](C(C)C)N(C)C(=O)[C@@H](NC(=O)[C@H]2CCCCN2C)c2ccc(F)cc2)OC(C)=O)n1	25 µM and > 100 µM	25 µM and > 100 µM		8.45 µM and 54.4 µM		6.71 µM and 20.8 µM		0.127 µM and 0.526 µM	0.0157 µM and 0.129 µM		0.0113 µM and 0.0379 µM		0.00229 µM and 0.0025 µM	25 µM and > 100 µM			0.00309 µM and 0.0103 µM			
Nc1ccc(C(=O)CC2(O)C(=O)Nc3ccccc32)cc1 (stereo not drawn)	> 100 µM		> 100 µM	> 100 µM	> 100 µM	> 100 µM	> 100 µM	> 100 µM	> 100 µM											
CCCC[C@H](CCc1ccccc1)N(C(=O)OC)N1CCC[C@H]1COC	31.6 µM	28.1 µM	82.6 µM	> 100 µM	32.9 µM	34.9 µM	40.5 µM	30.8 µM	32.3 µM											
